“And” between values parts separate entries of the source, which are not always exact repeats. Equal values may be shown once. “Also recorded” adds a separate entry of the source. Read-outs that look alike come from different tables or passages of the source.
What was measured:
[1] = cited from earlier work
[2] = Acute toxicity and lethalness of sorbose in rats; assay type: in vivo, WISTAR rat; conditions: rat, in vivo, ip; intraperitoneal; WISTAR rats; Karber and Behrens method; read-out: lethal dose 50 (LD50)
Procedure: (§1) The toxicity of sorbose has been studied in a first series of tests.
(§2) The test animals were ROCKFELLER mice and WISTAR rats.
(§3) Thus, solutes of sorbose (concentrations used: 615, 700, 900, 1000 and 1100 mg per ml) were administered orally, intravenously and intraperitoneally in different doses and concentrations to male mice of the ROCKFELLER type and to male rats of the WISTAR type.

[3] = tested on: male rats of the WISTAR type; test: Acute toxicity and lethalness of sorbose in rats; assay type: in vivo, WISTAR rat; conditions: rats
Procedure: as §1, §2, §3

[4] = Acute toxicity and lethalness of sorbose in mice; assay type: in vivo, ROCKFELLER mouse; conditions: mouse, in vivo, ip; intraperitoneal; ROCKFELLER mice; Karber and Behrens method; read-out: lethal dose 50 (LD50)
Procedure: as §1, §2, §3

[5] = tested on: male mice of the ROCKFELLER type; test: Acute toxicity and lethalness of sorbose in mice; assay type: in vivo, ROCKFELLER mouse; conditions: mice
Procedure: as §1, §2, §3

[6] = tested on: ROCKFELLER mice and WISTAR rats; test: Overall toxicity and tolerance tests of sorbose in mice and rats; assay type: in vivo, mouse; rat
From the text: as §1, §2

[7] = Urinary biological parameters before and during oral administration of sorbose (Table I); assay type: in vivo, WISTAR rat
Procedure: In the course of this experiment, detailed biological examinations concerning the urine and blood were carried out.
The urine examinations comprised the following: determination of the reducing power (copper-neocuproin method), determination of the true glycosuria (glucose-oxydase method), determination of the proteinuria, measurement of the urinary pH, determination of the urinary ionogram relating to the chlorine ions, sodium and potassium.

[8] = Chromatographic examination of the urine of animals ingesting sorbose; assay type: in vivo, WISTAR rat
Procedure: Thus, sorbose was administered orally to rats of the WISTAR type, as a supplement to the usual food ration, in a dose of 0.330 grams per 100 grams of body weight; such a dose would correspond to a daily intake of 198 grams of sorbose in a 60 kg person. This test was carried on for four weeks and three months. Each morning, 1 milliliter per 100 grams of body weight of a sorbose solute in water containing 0.330 g/ml was administered orally to each of the animals.

[9] = Clinical observation and weight development during oral administration of sorbose (food value); assay type: in vivo, WISTAR rat; conditions: 0.330 g per 100 g of body weight orally
From the text: The food value of sorbose has been studied in a second series of tests.

[10] = tested on: viscera: stomach, small intestine, large intestine, liver, kidneys and pancreas; test: Anatomical and histopathological observations at the end of the tests; assay type: in vivo, WISTAR rat
From the text: At the end of the tests the animals were put to death so that anatomical and histopathological observations could be made.

man = test: Hypersorbemia produced in man; assay type: in vivo; conditions: 1 gram per kg, empty stomach, in one lot
Procedure: To complete the tests concerned with animals, tests were carried out for hypersorbemia produced in man (ingestion on an empty stomach in one lot of a dose of sorbose equivalent to 1 gram per kg of weight).

[11] = tested on: oral bacteria (dilute human saliva); test: Formation of acids and lowering of pH by fermentation by oral bacteria (Table III); assay type: cell-based; conditions: for pH of medium / NaOH necessary for neutralization: 1 ml of 18% solution in 10 ml medium; for pH of medium: saliva, 37° C.; for NaOH necessary for neutralization: N/40 NaOH; for formation of acids / acidification (conclusion) / lowering of the pH to: medium inoculated with dilute saliva
Procedure: A series of tubes containing 10 ml of a sugarless nutritive culture medium at pH 7 was prepared. These tubes were sterilized by passing them through an autoclave at 120° C. for 20 minutes.
1 ml of sterile water was introduced into a first series of five tubes to make a control series.
1 ml of a sterile 18% solution of dextrose (weight/volume=W/V) was introduced into a second series of five tubes.
1 ml of a sterile 18% solution of saccharose (W/V) was introduced into a third series of five tubes.
1 ml of a sterile 18% solution of sorbose (W/V) was introduced into a fourth series of five tubes.
The sterile solutions of dextrose, saccharose and sorbose were obtained by sterilizing filtration by the usual technique.
A dilution of human saliva was prepared for immediate use and four tubes of each series were inoculated with the same volume of dilute saliva.
The formation of acids was followed by electric measurement of the pH and by determination of the quantity of acids formed; this determination was effected with a N/40 sodium/hydroxide solution, phenolphthalein being used as a neutralization indicator; a first determination was made before incubation, the following four determinations after incubations of 3, 6, 10 and 24 hours, respectively, at 37° C.
The results are assembled in Table III (pH value and value of the number of ml of sodium hydroxide necessary for neutralization).

[12] = rat, in vivo, po
Procedure: (§4) This test was carried on for four weeks and three months. Each morning, 1 milliliter per 100 grams of body weight of a sorbose solute in water containing 0.330 g/ml was administered orally to each of the animals.
(§5) The examinations of the blood comprised the following:
(§6) determination of the true glycemia (glucose-oxydase dosage),
(§7) determination of the ionemia (chlorides-phosphates-bicarbonates-sodium-potassium), azotemia, proteinemia, albuminemia, calcemia, cholesterolemia, uricemia and creatinemia, the total bilirubinemia and the levels of the alkaline phosphatases, the creatine-phosphokinases and the glutamino-oxaloacetic transaminases (these determinations were effected with the aid of a Technicon SM A 6+SM A 12 autoanalyzer).
(§8) These biological tests were carried out first on animals fed normally and then on the same animals in the course of the following weeks during which sorbose was being administered as a supplement to the food ration, as hereinbefore described.

[13] = cited from earlier work; remark: listed apart in the source
[14] = Biological parameters of blood before and during oral administration of sorbose (Table II); conditions: WISTAR rats, oral ingestion
Procedure: as §4, §5, §6, §7, §8

[15] = tested on: oral bacteria (dilute human saliva); conditions: background statement; cited from earlier work
[16] = prolonged administration orally and in high doses
[17] = 330 mg/100 g oral, a = first week, rats 1-6
[18] = 330 mg/100 g oral, b = fifth week, rats 1-6
[19] = 330 mg/100 g oral, c = thirteenth week, rats 1-6

Which laxative effect ([1]; in vivo) does the source give for OC[C@@H](O)[C@@H](O)[C@H](O)[C@@H](O)CO [sorbitol] here?
Its laxative effect is “laxative in high doses”.

For OC[C@@H](O)[C@@H](O)[C@H](O)[C@H](O)CO [mannitol], which laxative effect ([1]; in vivo) is on record?
Its laxative effect is “laxative in high doses”.

What does the source list for O=C(CO)[C@H](O)[C@@H](O)[C@H](O)CO [sorbose]?
LD50 [2]: 12800 mg/kg; dose at which no lethalness was observed ([3]; intravenously): 5.5 grams per kg of body weight; dose at which no lethalness was observed ([3]; orally): 11 grams per kg of body weight; LD50 [4]: 13600 mg/kg; dose at which no lethalness was observed ([5]; intravenously): 10 grams per kg of body weight; dose at which no lethalness was observed ([5]; orally): 27.5 grams per kg of body weight; toxicity (acute, subacute and chronic) ([6]; ROCKFELLER mice and WISTAR rats): devoid of acute, subacute and chronic toxicity; also recorded: absence of acute toxicity; clinical and biological tolerance [6, 16]: tolerated perfectly on the clinical and biological planes; histologically detectable visceral lesion [6, 16]: does not result in any histologically detectable visceral lesion; physiological proteinuria (conclusion) ([7]; 330 mg/100 g oral, 13 weeks): does not lead to a significant modification of the physiological proteinuria; reducing power in the urine (conclusion) ([7]; 330 mg/100 g oral, 13 weeks): causes the appearance of the reducing power in the urine; urinary ionogram (conclusion) ([7]; 330 mg/100 g oral, 13 weeks): does not modify the urinary ionogram; urinary pH (conclusion) ([7]; 330 mg/100 g oral, 13 weeks): does not modify the urinary pH; urinary potassium [7, 17]: 1.10 meq/24 h and 1.03 meq/24 h and 1.68 meq/24 h and 1.26 meq/24 h and 1.48 meq/24 h and 1 meq/24 h; urinary total reducing power [7, 17]: 56 mg/24 h and 30 mg/24 h and 39 mg/24 h and 38 mg/24 h and 35 mg/24 h and 28 mg/24 h; urinary chlorides [7, 18]: 1.27 meq/24 h and 0.90 meq/24 h and 1.11 meq/24 h and 1.56 meq/24 h and 1.00 meq/24 h and 1.46 meq/24 h; urinary pH [7, 18]: 8.5 and 8.2 and 9.2 and 9.1; urinary chlorides [7, 19]: 0.92 meq/24 h and 0.79 meq/24 h and 0.70 meq/24 h and 0.90 meq/24 h and 1.08 meq/24 h and 0.76 meq/24 h; urinary pH [7, 19]: 9 and 8.5 and 8.8 and 9.1; urinary potassium [7, 19]: 1.19 meq/24 h and 0.99 meq/24 h and 1.20 meq/24 h and 1.26 meq/24 h and 1.08 meq/24 h; urinary sodium [7, 19]: 0.39 meq/24 h and 0.34 meq/24 h and 0.54 meq/24 h and 0.45 meq/24 h and 0.46 meq/24 h and 0.61 meq/24 h; urinary total reducing power [7, 19]: 36 mg/24 h and 31 mg/24 h and 32 mg/24 h and 41 mg/24 h; glycosuria ([7]; during oral administration, 330 mg/100 g, 13 weeks): No glycosuria was detected; also recorded: does not result in true glycosuria; glucose and sorbose in the urine by chromatographic examination [8]: absence of glucose and the presence of sorbose; clinically detectable anomalies ([9]; four weeks and three months): no clinically detectable anomalies were observed; weight development ([9]; versus control animals): comparable to that observed in control animals; anatomical anomaly of the viscera [10]: no anatomical anomaly was found; histopathological change of structure of the organs [10]: did not enable any histopathological change of structure of the organs examined to be detected; tolerance in man (man): well tolerated; total reducing power of the blood in man (man): heightening of the total reducing power of the blood, which disappeared in a few hours; true glycemia in man (man): did not produce any variation in the true glycemia; pH of medium ([11]; 0 hours): 7.0; NaOH necessary for neutralization ([11]; 0 hours): 2.50 mL; pH of medium ([11]; 3 hours): 6.80; NaOH necessary for neutralization ([11]; 3 hours): 2.25 mL; pH of medium ([11]; 6 hours): 6.90; NaOH necessary for neutralization ([11]; 6 hours): 2.20 mL; pH of medium ([11]; 10 hours): 6.80; NaOH necessary for neutralization ([11]; 10 hours): 1.90 mL; pH of medium ([11]; 24 hours): 6.80; NaOH necessary for neutralization ([11]; 24 hours): 1.90 mL; formation of acids / acidification (conclusion) [11]: does not give rise to the formation of acids or to a lowering of the pH; also recorded: does not lead, by fermentation by bacteria of the mouth, to the production of fermentation acids or to a lowering of the pH; also recorded: no formation of acids or lowering of the pH; also recorded: does not give rise to the formation of acids by oral bacteria; cariogenicity (conclusion) ([11]; oral bacteria): non-cariogenic; serobiogram (conclusion) [12]: does not modify the serobiogram; total reducing power of the serum (conclusion) [12]: does not modify the value of the true glycemia or that of the total reducing power of the serum; solubility in alcohol [13]: not very soluble in alcohol; solubility in water [13]: rather soluble in water; tolerance (conclusion from the biological analyses) [14]: tolerated perfectly

For O=C(CO)[C@@H](O)[C@H](O)[C@H](O)CO [levulose, reference compound], which hygroscopicity ([13]; printed as "hydroscopic") is on record?
Its hygroscopicity is “very hydroscopic”.

With OC[C@@H](O)[C@H](O)[C@@H](O)CO [xylitol] as the molecule, how does the laxative effect ([1]; high doses) read?
The laxative effect was “laxative in high doses”.

For cyclamates, which harmfulness ([1]; in vivo) is on record?
The harmfulness was “subject of serious reservations on the part of the medical profession in regards to their harmfulness”.

For O=C[C@H](O)[C@@H](O)[C@H](O)[C@H](O)CO [dextrose], which pH of medium ([11]; 0 hours) is on record?
The pH of medium was 7.0.

And the “NaOH necessary for neutralization” value ([11]; 0 hours)?
The value was 2.50 mL.

What about the pH of medium ([11]; 3 hours) of the same molecule?
Its pH of medium is 6.90.

And the “NaOH necessary for neutralization” value ([11]; 3 hours)?
Its value is 2.25 mL.

And the pH of medium ([11]; 6 hours)?
Its pH of medium is 6.80.

And the “NaOH necessary for neutralization” value ([11]; 6 hours)?
Its value is 2.40 mL.

What about the pH of medium ([11]; 10 hours) of the same molecule?
Its pH of medium is 6.50.

What about the “NaOH necessary for neutralization” value ([11]; 10 hours) of the same molecule?
Its value is 2.80 mL.

What about the pH of medium ([11]; 24 hours) of the same molecule?
The pH of medium was 5.30.

And the “NaOH necessary for neutralization” value ([11]; 24 hours)?
The value was 5.70 mL.

And the “formation of acids / acidification (conclusion)” value [11]?
The value was “distinct acidification”.

And the “lowering of the pH to” value [11]?
The value was 5.3.

And the “formation of acids and lowering of pH under the action of mouth bacteria (general statement)” value [15]?
Its value is “give rise to a lowering of the pH and a considerable production of acids”.

What does the source list for OC[C@H]1O[C@@](CO)(O[C@H]2O[C@H](CO)[C@@H](O)[C@H](O)[C@H]2O)[C@@H](O)[C@@H]1O [saccharose]?
pH of medium ([11]; 0 hours): 7.0; NaOH necessary for neutralization ([11]; 0 hours): 2.50 mL; pH of medium ([11]; 3 hours): 6.90; NaOH necessary for neutralization ([11]; 3 hours): 2.45 mL; pH of medium ([11]; 6 hours): 6.90; NaOH necessary for neutralization ([11]; 6 hours): 2.40 mL; pH of medium ([11]; 10 hours): 6.10; NaOH necessary for neutralization ([11]; 10 hours): 3.20 mL; pH of medium ([11]; 24 hours): 5.10; NaOH necessary for neutralization ([11]; 24 hours): 6.10 mL; formation of acids / acidification (conclusion) [11]: distinct acidification; lowering of the pH to [11]: 5.1; cariogenic properties [15]: has cariogenic properties; formation of acids and lowering of pH under the action of mouth bacteria (general statement) [15]: give rise to a lowering of the pH and a considerable production of acids

From patent US4390523A, “Sorbose for inhibiting fermentation acids in the mouth” (priority 1972, dated 1983)
